Measured values as given in PMC11095988, “The Molecular Mechanism of FABP4 Inhibition Effects of GAS and 4-HBA in Gastrodia elata Blume Was Discussed Based on NMR and Molecular Docking” (Journal of Analytical Methods in Chemistry, 2024).
Each block holds one compound with its values, some of them ahead of it.

Experiments:
FABP4 [1] = molecular target: T1, FABP4 (Homo sapiens, UniProt P15090); experiment: fluorescent probe, emission shift on binding to FABP4
T1 sequence (P15090 2-132): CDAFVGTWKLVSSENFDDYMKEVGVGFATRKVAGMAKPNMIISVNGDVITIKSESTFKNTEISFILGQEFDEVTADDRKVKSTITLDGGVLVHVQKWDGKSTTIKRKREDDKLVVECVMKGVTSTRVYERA

FABP4 [2] = molecular target: T1, FABP4; experiment: fluorescence displacement; STD-NMR (weak signal) and ligand-observed 1H-NMR; type: binding
FABP4 [3] = molecular target: T1, FABP4; experiment: fluorescence displacement; STD-NMR and ligand-observed 1H-NMR; type: binding

Structure (SMILES): O=S(=O)(O)c1cccc2cccc(Nc3ccccc3)c12 [1,8-ANS, 8-anilino-1-naphthalenesulfonic acid]
fluorescent probe, emission shift on binding to FABP4 (FABP4 [1]): When ANS binds to FABP4, its maximum emission light will be blue-shifted

IC50 (FABP4 [2]): 50.5 µM
Structure (SMILES): OCc1ccc(O)cc1 [4-HBA, 4-hydroxybenzyl alcohol]

Structure (SMILES): OCc1ccc(O[C@@H]2O[C@H](CO)[C@@H](O)[C@H](O)[C@H]2O)cc1 [GAS, gastrodin]
IC50 (FABP4 [3]): 29.8 µM
